# Assays:
# [1] = test system: Hepatotoxicity;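 as to HepSE bilirubinemia: bilirubinemia hepatic side effect score drawn from the DILIps training data, a prediction system for drug-induced liver injury; call rule not given here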;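 as to HepSE cholecystitis: Cholecystitis-related hepatic side effect score drawn from the DILIps (drug-induced liver injury prediction) training data set; call rule not given here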;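 as to HepSE cholelithiasis: hepatic side effect score for cholelithiasis, drawn from the DILIps training data for predicting drug-induced liver injury; call rule not given here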;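 as to HepSE cirrhosis: cirrhosis hepatic side effect score taken from the DILIps (drug-induced liver injury prediction) training set; call rule not given here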;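 as to HepSE elevated liver function tests: hepatic side effect score for raised liver function tests, as recorded in the DILIps training set used for predicting drug-induced liver injury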; as to HepSE hepatic failure: call rule not given here;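 as to HepSE hepatomegaly: hepatic side effect score for hepatomegaly, taken from the training set of the DILIps drug-induced liver injury prediction system; call rule not given here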
# [2] = test system: Hepatotoxicity; remark: listed apart in the source;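 as to HepSE bilirubinemia: bilirubinemia hepatic side effect score drawn from the DILIps training data, a prediction system for drug-induced liver injury; call rule not given here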;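 as to HepSE cholecystitis: Cholecystitis-related hepatic side effect score drawn from the DILIps (drug-induced liver injury prediction) training data set; call rule not given here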;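 as to HepSE cholelithiasis: hepatic side effect score for cholelithiasis, drawn from the DILIps training data for predicting drug-induced liver injury; call rule not given here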;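 as to HepSE cirrhosis: cirrhosis hepatic side effect score taken from the DILIps (drug-induced liver injury prediction) training set; call rule not given here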;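 as to HepSE elevated liver function tests: hepatic side effect score for raised liver function tests, as recorded in the DILIps training set used for predicting drug-induced liver injury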; as to HepSE hepatic failure: call rule not given here
# [3] = test system: Hepatotoxicity; remark: listed apart in the source;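 as to HepSE bilirubinemia: bilirubinemia hepatic side effect score drawn from the DILIps training data, a prediction system for drug-induced liver injury; call rule not given here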;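 as to HepSE cholecystitis: Cholecystitis-related hepatic side effect score drawn from the DILIps (drug-induced liver injury prediction) training data set; call rule not given here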;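 as to HepSE cholelithiasis: hepatic side effect score for cholelithiasis, drawn from the DILIps training data for predicting drug-induced liver injury; call rule not given here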;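 as to HepSE cirrhosis: cirrhosis hepatic side effect score taken from the DILIps (drug-induced liver injury prediction) training set; call rule not given here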;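 as to HepSE elevated liver function tests: hepatic side effect score for raised liver function tests, as recorded in the DILIps training set used for predicting drug-induced liver injury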; as to HepSE hepatic failure: call rule not given here
# [4] = test system: Hepatotoxicity; remark: listed apart in the source;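 as to HepSE bilirubinemia: bilirubinemia hepatic side effect score drawn from the DILIps training data, a prediction system for drug-induced liver injury; call rule not given here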;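 as to HepSE cholecystitis: Cholecystitis-related hepatic side effect score drawn from the DILIps (drug-induced liver injury prediction) training data set; call rule not given here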;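 as to HepSE cholelithiasis: hepatic side effect score for cholelithiasis, drawn from the DILIps training data for predicting drug-induced liver injury; call rule not given here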;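 as to HepSE cirrhosis: cirrhosis hepatic side effect score taken from the DILIps (drug-induced liver injury prediction) training set; call rule not given here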;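 as to HepSE elevated liver function tests: hepatic side effect score for raised liver function tests, as recorded in the DILIps training set used for predicting drug-induced liver injury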; as to HepSE hepatic failure: call rule not given here
# [5] = test system: Hepatotoxicity; remark: listed apart in the source; as to HepSE hepatic failure: call rule not given here
# [6] = test system: Hepatotoxicity; remark: listed apart in the source; as to HepSE hepatic failure: call rule not given here
# [7] = test system: Hepatotoxicity; remark: listed apart in the source
# [8] = test system: Hepatotoxicity; remark: listed apart in the source
# [9] = test system: Hepatotoxicity; remark: listed apart in the source
# [10] = test system: Hepatotoxicity; remark: listed apart in the source
# [11] = test system: Hepatotoxicity; remark: listed apart in the source
# [12] = test system: Hepatotoxicity; remark: listed apart in the source
# [13] = test system: Hepatotoxicity; remark: listed apart in the source
# [14] = test system: Hepatotoxicity; remark: listed apart in the source
SMILES,HepSE_bilirubinemia [1],HepSE_cholecystitis [2],HepSE_cholelithiasis [3],HepSE_cirrhosis [4],HepSE_elevated liver function tests [5],HepSE_hepatic failure [6],HepSE_hepatic necrosis [7],HepSE_hepatitis [8],HepSE_hepatomegaly [9],HepSE_jaundice [10],HepSE_liver disease [11],HepSE_liver fatty [12],HepSE_liver function tests abnormal [13],HepSE_Combined Scores [14]
CC[C@@H](CO)NC(=O)[C@@H]1C=C2c3cccc4[nH]cc(c34)C[C@H]2N(C)C1 [METHYLERGONOVINE],0,0,0,0,0,0,0,0,0,0,0,0,0,0
COC(=O)[C@H]1[C@H]2C[C@@H]3c4[nH]c5cc(OC)ccc5c4CCN3C[C@H]2C[C@@H](OC(=O)c2cc(OC)c(OC)c(OC)c2)[C@@H]1OC [RESERPINE],0,0,0,0,0,0,0,0,0,0,0,0,0,0
CCOC(=O)[C@H](CCc1ccccc1)N[C@H]1CCc2ccccc2N(CC(=O)O)C1=O [BENAZEPRIL],0,0,0,0,0,0,0,1,0,1,0,0,0,2
Cc1c(OCC(F)(F)F)ccnc1C[S+]([O-])c1nc2ccccc2[nH]1 (stereo not drawn) [LANSOPRAZOLE],1,0,1,0,0,0,0,0,0,1,0,0,1,4
CC(C)(C)NCC(O)COc1cccc2c1CC(O)C(O)C2 (stereo not drawn) [NADOLOL],0,0,0,0,0,0,0,0,0,0,0,0,0,0
C=CC[C@@H]1/C=C(\C)C[C@H](C)C[C@H](OC)[C@H]2O[C@@](O)(C(=O)C(=O)N3CCCC[C@H]3C(=O)O[C@H](/C(C)=C/[C@@H]3CC[C@@H](O)[C@H](OC)C3)[C@H](C)[C@@H](O)CC1=O)[C@H](C)C[C@@H]2OC [TACROLIMUS ANHYDROUS],1,0,0,0,0,0,1,1,0,1,1,1,1,7
CC(C)[C@H](N)C(=O)OCCOCn1cnc2c(=O)[nH]c(N)nc21 [VALACYCLOVIR],0,0,0,0,0,0,0,1,0,0,0,0,0,1

# Source: ChEMBL document CHEMBL1909294, “Translating clinical findings into knowledge in drug safety evaluation--drug induced liver injury prediction system (DILIps)” (PLoS Comput Biol, 2011)
